Data reported in PMC10001324, “Differential Effects of Nonsteroidal Anti-Inflammatory Drugs in an In Vitro Model of Human Leaky Gut” (Cells, 2023).
Values after ≈ are worked out from the molar mass of the structure shown. Read-outs that look alike come from different tables or passages of the source.

Experiments:
Caco-2 cells [1] = assay: Morphological analysis of the intestinal barrier (ZO-1 immunofluorescence, phalloidin staining); format: cell-based, human; conditions: Caco-2, 6% EtOH 24 h then 1 mM for 72 h
Procedure: Cells were then fixed with 3.7% paraformaldehyde (Sigma, USA) in PBS for 15 min at room temperature and then permeabilized with 0.1% Triton X-100 (Sigma, USA) in PBS for 5 min. After further washes with PBS, phalloidin 1000X (ab176753, Abcam, UK) was diluted to 1X in 1% BSA in PBS, and the cells were incubated for 90 min at room temperature (according to the manufacturer’s instructions). Finally, coverslips were mounted on microscope slides with Vectashield Mounting Medium H2000 with DAPI and cells were observed using a Leica SP5 confocal microscope. For each condition, n = 3, 5 fields/slide were analyzed. A representative picture is shown.
Cells were then treated with 6% EtOH (24 h) and then with 1 mM NSAIDs (72 h). Cells were fixed in 3.7% paraformaldehyde in PBS for 15 min at room temperature, rinsed with PBS, and permeabilized with 0.1% Triton X-100 in PBS for 5 min. After further washes with PBS, cells were incubated for 30 min with BSA 4% in PBS and then incubated overnight at 4 °C with the primary antibody zonulin-1 (ZO-1) (33-910, Thermo Scientific, MA, USA rabbit anti-human, dilution 1:100). […] Finally, coverslips were mounted on microscope slides with Vectashield Mounting Medium with DAPI and cells were observed using a Leica SP5 confocal microscope.

Caco-2 cells [2] = conditions: effect on EtOH-induced increase; Caco-2, 1 mM for 72 h
Procedure: OxyBlot protein oxidation detection kits (S7150, Millipore Company, Burlington, MA, USA) were used according to the manufacturer’s instructions. Briefly, cells were plated (seeding density 3 × 10^5 cells/cm^2) in a complete medium in a T75 flask and cultured for 20 days post-confluence. After 20 days, cells were exposed for 24 h to EtOH (6%) and for 72 h to NSAIDs (1 mM). OxyBlot assay was then performed as previously reported.

IKBα/4-HNE adducts = assay: Immunoprecipitation for IKBα, IKBα/4-HNE adducts, Caco-2; format: cell-based, human; conditions: Caco-2, EtOH then 1 mM for 72 h
Procedure: The columns were incubated overnight at 4 °C. […] Values were given as RU.

4-HNE = 4-HNE levels by WB, Caco-2; format: cell-based, human; conditions: Caco-2, 6% EtOH 24 h then 1 mM for 72 h
[3] = tested on: Glutathione-S-transferase (GST); conditions: effect on EtOH-induced decrease; Caco-2, 1 mM for 72 h
COX = conditions: cited from earlier work
[4] = Caco-2 permeability assay (Papp, Ap-Bl); format: in vitro ADME; conditions: human, Caco-2, apical to basolateral
Procedure: Papp is the apparent permeability of a compound across a membrane. For drug transport studies, cells were seeded at a density of 3 × 10^5 cells/cm^2 on permeable support with 0.4 µm Transparent PET Membrane in complete medium, cultured and treated as described above.
Drug transport across Caco-2 monolayers was studied in the Ap–Bl direction, fresh drug and provided to the apical side (donor compartment), and the fresh vehicle was provided to the basolateral side (receiver compartment). For each solution, aliquots of 500 μL were collected immediately after the addition of compounds to the cells (the “time zero”), and after appropriate dilution, an HPLC analysis was performed. At the end of the experiment, after 120 min of incubation, 500 μL of the donor chamber solution was diluted and an HPLC analysis was performed.

NFkB = NFkB translocation in LPS-activated RAW 264.7 macrophages; format: cell-based, murine; conditions: 1 mM for 24 h
Procedure: The murine macrophage cell line RAW 264.7 (ATCC TIB-71) was purchased from ATCC, and cells were cultured as indicated by the manufacturer. For the experiment, cells were seeded 10,000/cm^2 for 24 h, starved for 4 h (w/o serum), and activated with lipopolysaccharides (LPS 10 ng/mL for 24 h; Sigma Aldrich, St. Louis, MO, USA). […] RAW 264.7 cells were seeded at 10,000 cells/cm^2 and activated with LPS. […] For both Caco-2 and RAW 264.7 cells, the procedure of extraction of different components was performed as previously reported. The protein fraction extracts were separated on a 10% SDS–polyacrylamide gel and electroblotted onto PVDF. Nonspecific binding sites were blocked by EBB for 5 min. Membranes were then incubated overnight at 4 °C with anti-NFκB and anti-PPARγ. As secondary antibodies, peroxidase-conjugated anti-rabbit, and anti-mouse were used. Bands were detected using Alliance 4.7 UVITEC (Cambridge, UK) and analyzed by ImageJ software. The relative densities of the immunoreactive bands were normalized to anti-Actin or anti-laminin using ImageJ software. Values were given as RU.

TNF-α = conditions: Caco-2, EtOH exposure 6% for 24 h; control 10.8 ± 1.3 pg/mL
IL-8 = conditions: Caco-2, EtOH exposure 6% for 24 h; control 82.4 ± 0.44 pg/mL
[5] = Log P / LogD7.4 by pH-metric titration in octanol (SiriusT3); format: physicochemical; conditions: for logD: pH 7.4; for logP: SiriusT3, octanol
Procedure: (§1) The major physicochemical properties of the drugs were determined using the SiriusT3 apparatus (Sirius Analytical Instruments Ltd., East Sussex, UK) equipped with an Ag/AgCl double junction reference pH electrode, a Sirius D-PAS spectrometer, and a turbidity sensing device. The pH electrode was calibrated titrimetrically in the pH range 1.8–12.2 as previously described. The pKas were defined by the potentiometric method by pH-metric titration. The powder (around 0.5 mg) was diluted in 1.5 mL of ISA water and the titration was analyzed in triplicate in the pH range 2.0–12.0.

Caco-2 cells [6] = assay: Transepithelial electrical resistance (TEER), EtOH-stressed Caco-2; format: cell-based, human; conditions: Caco-2 20 DIV, 6% EtOH 24 h then 0.25, 0.5, 1 mM for 72 h
COX-1 = conditions: human blood, cited from earlier work
physchem = conditions: water
Procedure: as §1

COX-2 = conditions: human blood, cited from earlier work
IKBα = IKBα protein levels by western blotting, Caco-2; format: cell-based, human; conditions: Caco-2, 6% EtOH 24 h then 1 mM for 72 h
Caco-2 cells [7] = assay: DCFDA cellular ROS assay, Caco-2; format: cell-based, human; conditions: compared to EtOH challenge alone; Caco-2, 1 mM for 72 h

| SMILES | intestinal barrier integrity (ZO-1 and phalloidin staining) (Caco-2 cells [1]) | IKBα/4-HNE adduct formation (IKBα/4-HNE adducts) | Papp at 120 min ([4]; Caco-2, K) [×10⁻⁶ cm/s] | Papp at 120 min ([4]; Caco-2, KLS) [×10⁻⁶ cm/s] | NFkB translocation (NFkB) | logP ([5]; octanol/ISA water) | IC50 (COX-1; ref 23) [µM] | IC50 (COX-1; ref 24) [µM] | other results |
| --- | --- | --- | --- | --- | --- | --- | --- | --- | --- |
| NCCCC[C@H](N)C(=O)O [Lys, L-lysine] | did not show the ability to protect Caco-2 cells | not | – | – | – | – | – | – | levels of oxidized proteins (OxyBlot) (Caco-2 cells [2]): did not exhibit direct antioxidant effects; 4-HNE levels (4-HNE): not; GST activity [3]: not observed |
| C[C@@H](C(=O)O)c1cccc(C(=O)c2ccccc2)c1 [R enantiomer, R-Ketoprofen] | – | – | 0.579 ± 0.052 | 1.19 ± 0.044 | inhibited NFkB translocation to the same extent as KLS | – | – | – | potency as a COX inhibitor (COX): several logs less potent than the S enantiomer |
| C[C@H](C(=O)O)c1cccc(C(=O)c2ccccc2)c1 [S enantiomer, (S)-ketoprofen] | – | – | 0.576 ± 0.031 | 1.19 ± 0.026 | not | – | – | – | – |
| CCO [EtOH, Ethanol] | – | – | – | – | – | – | – | – | Secreted TNF-α levels (TNF-α): 20.9 ± 0.7 pg/mL; Secreted IL-8 levels (IL-8): 283.9 ± 4.1 pg/mL |
| CC(C)Cc1ccc(C(C)C(=O)O)cc1 (stereo not drawn) [Ibuprofen] | – | – | – | – | – | 3.91 ± 0.01 | […] | […] | logD ([5]; octanol/ISA water): 0.96; TEER (Caco-2 cells [6]): partial but significant protective activity; solubility (physchem): 49 µg/mL (≈ 238 µM) |
| CC(C(=O)O)c1cccc(C(=O)c2ccccc2)c1 (stereo not drawn) [Ketoprofen, ketoprofen] | did not show the ability to protect Caco-2 cells | reduced the formation of the adducts | – | – | – | 3.05 ± 0.01 | 0.047 | 0.11 | logD [5]: 0.12; IC50 (COX-2; ref 23): 2.9 µM; IC50 (COX-2; ref 24): 0.88 µM; IKBα protein levels (IKBα): counteracted the EtOH-induced IKBα decrease; DCFDA fluorescence intensity (cellular ROS) (Caco-2 cells [7]): more substantial |
